Measured values reported in article PMC9239272 (mBio, 2022).

Tests used:
SARS2 M^pro [1] = format: cell-based, SARS-CoV-2
SARS2 M^pro [2] = format: cell-based, SARS-CoV-2; remark: listed apart in the source
NL63 M^pro [3] = format: cell-based, HCoV-NL63; conditions: 2-fold dilution series beginning at 100 μM
229E M^pro = format: cell-based, HCoV-229E
NL63 M^pro [4] = conditions: in vitro studies; cited from earlier work

GRL-0496
dose responsiveness of WT Luc reporter (SARS2 M^pro [1]): clear positive dose response
cytotoxicity (293T cells): no cytotoxicity

O=c1c2ccccc2[se]n1-c1ccccc1 [ebselen]
dose responsiveness of WT Luc reporter (SARS2 M^pro [1]): tested negative at all concentrations

CC(C)(C)NC(=O)N[C@H](C(=O)N1C[C@H]2[C@@H]([C@H]1C(=O)NC(CC1CCC1)C(=O)C(N)=O)C2(C)C)C(C)(C)C (some centres unmarked) [boceprevir]
restoration of eGFP fluorescence of WT reporter (SARS2 M^pro [2]): comparatively modest increase in signal
increase in signal of luciferase construct compared with eGFP construct (SARS2 M^pro [1]): ~ 3 fold
maximal signal increase over background (SARS2 M^pro [1]): 16 fold
maximal signal increase over background (NL63 M^pro [3]): 1.9 fold
maximal signal increase over background (229E M^pro): 4.3 fold
IC50 (NL63 M^pro [4]): ~100 µM

GC376
restoration of eGFP fluorescence of WT reporter (SARS2 M^pro [2]): strong restoration of expression and eGFP fluorescence
dose responsiveness of WT Luc reporter (SARS2 M^pro [1]): causes increased reporter expression
increase in signal of luciferase construct compared with eGFP construct (SARS2 M^pro [1]): ~ 3 fold
maximal signal increase over background (SARS2 M^pro [1]): 100 fold
cell viability (293T cells; 48 h incubation, wide range of concentrations): cell viabilities remain consistent
maximal signal increase over background (NL63 M^pro [3]): 24 fold
maximal signal increase over background (229E M^pro): 72 fold

Cc1ccc(NC(=O)c2ccc(CN3CCN(C)CC3)cc2)cc1Nc1nc(-c2cccnc2)cs1 [masitinib]
dose responsiveness of WT Luc reporter (SARS2 M^pro [1]): tested negative at all concentrations

CC(C)(C)[C@H](NC(=O)C(F)(F)F)C(=O)N1C[C@H]2[C@@H]([C@H]1C(=O)N[C@H](C#N)C[C@@H]1CCNC1=O)C2(C)C [nirmatrelvir]
dose responsiveness of WT Luc reporter (SARS2 M^pro [1]): highest reporter signals at all tested concentrations

CCOc1ccc2nc3cc(N)ccc3c(N)c2c1 [Ethacridine]
dose responsiveness of WT Luc reporter (SARS2 M^pro [1]): tested negative at all concentrations

CCCCCCNC(=O)n1cc(F)c(=O)[nH]c1=O [Carmofur]
dose responsiveness of WT Luc reporter (SARS2 M^pro [1]): tested negative at all concentrations
